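Method: 48-hour compound exposure of cells in 96-well plates, five concentrations, linear interpolation of endpoints. GI50: concentration for 50% inhibition of growth.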 The source made the active and inactive calls. Rule as the data show it: active = GI50 up to about 1.1 µM and inactive = higher.
Columns and labels:
Assay in all cases: NCI tumour cell line growth inhibition, 48 h
[1] = system: ACHN
[2] = system: CAKI-1
[3] = system: CCRF-CEM
[4] = system: HCT-15
[5] = system: HL-60
[6] = system: HOP-92
[7] = system: Hs-578T
[8] = system: K562
[9] = system: MDA-MB-231
[10] = system: MDA-MB-435
[11] = system: NCI-H460
[12] = system: NCI-H522
[13] = system: SF-295
[14] = system: SK-MEL-2
[15] = system: SW-620
[16] = system: T47D
[17] = system: U-251
[18] = system: UACC-257
[19] = system: UO-31
[20] = system: SF-539

Compound | GI50 [1] | GI50 [2] | GI50 [3] | GI50 [4] [µM] | GI50 [5] | GI50 [6] | GI50 [7] | GI50 [8] | GI50 [9] | GI50 [10] | GI50 [11] | GI50 [12] | GI50 [13] | GI50 [14] | GI50 [15] | GI50 [16] | GI50 [17] | GI50 [18] | GI50 [19] | GI50 [20]
Cn1c(=O)c2c(nc3n(Cc4ccccc4)c(=O)c(NCCBr)cn23)n(C)c1=O | 15.4 µM (inactive) | 18.5 µM (inactive) | 45.5 µM (inactive) | 34.8 | 38.8 µM (inactive) | 12 µM (inactive) | 29 µM (inactive) | 46 µM (inactive) | 26.5 µM (inactive) | 49.5 µM (inactive) | 26.9 µM (inactive) | 22.2 µM (inactive) | 21.9 µM (inactive) | 17.2 µM (inactive) | 90.6 µM (inactive) | 21.1 µM (inactive) | 30.4 µM (inactive) | 25.7 µM (inactive) | 13 µM (inactive) | 
CCCC1C(C#N)(C#N)C(C#N)=C(N)C1(C)C(C)=O (configuration not stated) | > 100 µM (inactive) | 10.1 µM (inactive) | > 100 µM (inactive) | 29.2 | 31.8 µM (inactive) | 36.3 µM (inactive) | > 100 µM (inactive) | 37.3 µM (inactive) | > 100 µM (inactive) | > 100 µM (inactive) |  | 52.8 µM (inactive) | > 100 µM (inactive) | > 100 µM (inactive) | > 100 µM (inactive) | 59 µM (inactive) | > 100 µM (inactive) | 86.9 µM (inactive) | > 100 µM (inactive) | > 100 µM (inactive)
OC(c1cc(-c2ccc(Cl)cc2)nc2ccccc12)C1CCCCN1 (configuration not stated) | 1.95 µM (inactive) | 2.32 µM (inactive) | 0.498 µM (active) | 2.46 | 2.39 µM (inactive) | 3.37 µM (inactive) | 1.99 µM (inactive) | 1.48 µM (inactive) | 1.95 µM (inactive) | 2.09 µM (inactive) | 2.08 µM (inactive) | 1.27 µM (inactive) | 1.94 µM (inactive) | 2.03 µM (inactive) | 1.88 µM (inactive) | 1.77 µM (inactive) | 1.84 µM (inactive) | 2.66 µM (inactive) | 1.15 µM (inactive) | 1.79 µM (inactive)
COc1cccc(OC)c1C1ON=C(c2ccccc2)N1C12CC3CC(CC(C3)C1)C2 (configuration not stated) | 35.3 µM (inactive) | > 100 µM (inactive) |  | > 100 | 1.87 µM (inactive) | 10.9 µM (inactive) | 57.7 µM (inactive) | > 100 µM (inactive) | > 100 µM (inactive) | > 100 µM (inactive) | > 100 µM (inactive) | 31 µM (inactive) | > 100 µM (inactive) | 64 µM (inactive) | > 100 µM (inactive) | 8.3 µM (inactive) | 30.1 µM (inactive) | > 100 µM (inactive) | > 100 µM (inactive) | > 100 µM (inactive)
O=C1CCCCCCCCCCC1CN(Cc1ccccc1)Cc1ccccc1 (configuration not stated) | 30 µM (inactive) |  | 19.9 µM (inactive) | 56.5 | 23.9 µM (inactive) | 78.2 µM (inactive) | 22.4 µM (inactive) | 36.3 µM (inactive) | 77.6 µM (inactive) | 37.1 µM (inactive) |  | 41.3 µM (inactive) | 32.6 µM (inactive) |  | 45.6 µM (inactive) | 19.1 µM (inactive) | 18.8 µM (inactive) | 32.2 µM (inactive) | 48.5 µM (inactive) | 45.2 µM (inactive)
CC1(C)[C@@H]2CC[C@@]1(C)[C@@H]1O[C@@H](O[C@@H](CN)c3cc(Cl)c(OCc4ccccc4)c(OCc4ccccc4)c3)C[C@H]21 | 0.169 µM (active) | 0.165 µM (active) | 0.167 µM (active) |  | 0.177 µM (active) | 0.171 µM (active) | 0.187 µM (active) | 0.156 µM (active) | 0.155 µM (active) | 0.162 µM (active) |  | 0.186 µM (active) | 0.183 µM (active) | 0.173 µM (active) | 0.191 µM (active) | 0.178 µM (active) | 0.158 µM (active) | 0.175 µM (active) | 0.173 µM (active) | 0.196 µM (active)
O=[N+]([O-])c1cc(F)ccc1Sc1ccccc1 | > 10 µM (inactive) | > 10 µM (inactive) | > 10 µM (inactive) | > 10 | > 10 µM (inactive) | > 10 µM (inactive) | > 10 µM (inactive) | > 10 µM (inactive) | > 10 µM (inactive) | > 10 µM (inactive) | > 10 µM (inactive) | > 10 µM (inactive) | > 10 µM (inactive) | > 10 µM (inactive) | > 10 µM (inactive) | > 10 µM (inactive) | > 10 µM (inactive) | > 10 µM (inactive) |  | > 10 µM (inactive)
COC(=O)/C=C(\S/C=C(/c1ccccc1)N1CCn2c(C(=O)c3ccccc3)c(C(=O)OC)c(C(=O)OC)c21)C(=O)OC | 3.34 µM (inactive) | 4.04 µM (inactive) | 0.733 µM (active) | 2.6 | 0.531 µM (active) | 1.23 µM (inactive) | > 10 µM (inactive) | 3.53 µM (inactive) | 2.69 µM (inactive) | 3.97 µM (inactive) | > 10 µM (inactive) | 0.434 µM (active) | > 10 µM (inactive) | > 10 µM (inactive) | 0.565 µM (active) | 2.92 µM (inactive) | 3.93 µM (inactive) | 3.07 µM (inactive) |  | 2.29 µM (inactive)
NC(=O)c1ncn(C2C=CC(CP(=O)(O)O)C2)c1N (configuration not stated) | > 100 µM (inactive) | > 100 µM (inactive) | > 100 µM (inactive) | > 100 | > 100 µM (inactive) | > 100 µM (inactive) | > 100 µM (inactive) | > 100 µM (inactive) | > 100 µM (inactive) | > 100 µM (inactive) | > 100 µM (inactive) |  | > 100 µM (inactive) | > 100 µM (inactive) | > 100 µM (inactive) | > 100 µM (inactive) | > 100 µM (inactive) | > 100 µM (inactive) | > 100 µM (inactive) | > 100 µM (inactive)
Cn1c2c(c3ccccc31)CCN1OCC=C[C@@H](C(=O)O)[C@@H]21 | > 100 µM (inactive) | > 100 µM (inactive) |  | > 100 | > 100 µM (inactive) | 17.9 µM (inactive) | 31 µM (inactive) |  | > 100 µM (inactive) | > 100 µM (inactive) | > 100 µM (inactive) | > 100 µM (inactive) |  | > 100 µM (inactive) | > 100 µM (inactive) | > 100 µM (inactive) | > 100 µM (inactive) | > 100 µM (inactive) | 51.3 µM (inactive) | > 100 µM (inactive)
CC1C(=O)OC2CC[N+]3([O-])CC=C(COC(=O)C(C)(O)C1(C)O)C23 (configuration not stated) | > 100 µM (inactive) | > 100 µM (inactive) | > 100 µM (inactive) | > 100 | > 100 µM (inactive) | > 100 µM (inactive) | > 100 µM (inactive) | > 100 µM (inactive) | > 100 µM (inactive) | > 100 µM (inactive) | > 100 µM (inactive) | > 100 µM (inactive) | > 100 µM (inactive) | > 100 µM (inactive) | > 100 µM (inactive) | > 100 µM (inactive) | > 100 µM (inactive) | > 100 µM (inactive) |  | > 100 µM (inactive)
Cc1cccc(NC2=NCCO2)c1Cl | > 100 µM (inactive) |  | > 100 µM (inactive) | > 100 | > 100 µM (inactive) | 32.7 µM (inactive) | > 100 µM (inactive) | > 100 µM (inactive) | > 100 µM (inactive) | > 100 µM (inactive) | > 100 µM (inactive) |  | > 100 µM (inactive) |  | > 100 µM (inactive) | > 100 µM (inactive) | > 100 µM (inactive) | > 100 µM (inactive) | > 100 µM (inactive) | > 100 µM (inactive)
Oc1ccc2ccccc2c1CCc1c(O)ccc2ccccc12 | 16.4 µM (inactive) | 7.45 µM (inactive) | 11.9 µM (inactive) | 14.4 | 22.8 µM (inactive) | 11 µM (inactive) | 16.2 µM (inactive) | 7.55 µM (inactive) | 14.1 µM (inactive) | 12.8 µM (inactive) | 10.4 µM (inactive) |  | 11.7 µM (inactive) |  | 14.2 µM (inactive) | 2.44 µM (inactive) | 13.3 µM (inactive) | 13.9 µM (inactive) |  | 16.2 µM (inactive)
COc1ccc(OCC(=N/NC(=O)c2ccncc2)/N=C/c2ccncc2)cc1 | > 100 µM (inactive) | > 100 µM (inactive) | > 100 µM (inactive) | 51.5 | 57.9 µM (inactive) | 29.2 µM (inactive) | > 100 µM (inactive) | 57.9 µM (inactive) | > 100 µM (inactive) | 22.6 µM (inactive) | > 100 µM (inactive) | 32.2 µM (inactive) | 42.9 µM (inactive) | > 100 µM (inactive) | 53.5 µM (inactive) | > 100 µM (inactive) | > 100 µM (inactive) | > 100 µM (inactive) |  | > 100 µM (inactive)
CNC(=O)C1CCC(=O)N1CN(C(C)=O)c1ccccc1 (configuration not stated) | > 100 µM (inactive) | > 100 µM (inactive) | 0.0471 µM (active) | > 100 |  | > 100 µM (inactive) | > 100 µM (inactive) | > 100 µM (inactive) | > 100 µM (inactive) | > 100 µM (inactive) | > 100 µM (inactive) | > 100 µM (inactive) | > 100 µM (inactive) | > 100 µM (inactive) | > 100 µM (inactive) | > 100 µM (inactive) | > 100 µM (inactive) | > 100 µM (inactive) | > 100 µM (inactive) | > 100 µM (inactive)
